How the values were obtained:
[1] = biological target: T1, Muscarinic acetylcholine receptor M1 (Homo sapiens, UniProt P11229); assay: Displacement of [N-methyl-3H]scopolamine from human recombinant muscarinic receptor M1 expressed in CHO cell membrane; format: cell membranes
T1 sequence (P11229 whole entry): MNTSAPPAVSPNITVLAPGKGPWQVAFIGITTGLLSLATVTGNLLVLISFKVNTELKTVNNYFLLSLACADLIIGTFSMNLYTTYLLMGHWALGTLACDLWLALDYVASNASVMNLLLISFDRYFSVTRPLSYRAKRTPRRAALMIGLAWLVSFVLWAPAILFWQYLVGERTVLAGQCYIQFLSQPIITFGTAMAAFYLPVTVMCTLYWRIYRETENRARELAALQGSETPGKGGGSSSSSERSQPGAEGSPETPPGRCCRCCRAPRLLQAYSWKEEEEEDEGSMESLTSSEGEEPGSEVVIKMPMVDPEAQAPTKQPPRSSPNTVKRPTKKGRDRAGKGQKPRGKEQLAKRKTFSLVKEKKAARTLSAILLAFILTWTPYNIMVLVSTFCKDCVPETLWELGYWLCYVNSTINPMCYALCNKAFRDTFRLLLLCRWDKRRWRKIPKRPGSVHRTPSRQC

Rattus norvegicus [2] = species: Rattus norvegicus; assay: animal or person; conditions: Plasma, po, 7 h, read-out: Inhibition
Description: Ex vivo inhibition of DPP4 in rat plasma at 10 mg/kg, po after 7 hrs

Cytochrome P450 1A2 = biological target: T2, Cytochrome P450 1A2 (Homo sapiens, UniProt P05177); assay: Inhibition of CYP1A2; format: ADME
T2 sequence (P05177 whole entry): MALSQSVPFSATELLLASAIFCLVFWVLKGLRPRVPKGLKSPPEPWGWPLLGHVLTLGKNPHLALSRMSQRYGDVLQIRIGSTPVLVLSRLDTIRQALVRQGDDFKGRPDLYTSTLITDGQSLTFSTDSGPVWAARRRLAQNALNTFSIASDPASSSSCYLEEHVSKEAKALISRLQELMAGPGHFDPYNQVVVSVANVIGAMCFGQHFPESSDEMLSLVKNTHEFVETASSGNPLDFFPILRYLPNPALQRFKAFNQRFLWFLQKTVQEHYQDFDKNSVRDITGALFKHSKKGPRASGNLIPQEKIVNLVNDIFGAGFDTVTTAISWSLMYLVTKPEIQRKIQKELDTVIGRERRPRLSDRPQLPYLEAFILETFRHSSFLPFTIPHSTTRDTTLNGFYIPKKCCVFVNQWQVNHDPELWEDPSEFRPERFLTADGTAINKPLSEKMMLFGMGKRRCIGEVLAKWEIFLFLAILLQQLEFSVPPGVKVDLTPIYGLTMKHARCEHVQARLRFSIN

Cytochrome P450 2C9 = Cytochrome P450 2C9 (Homo sapiens, UniProt P11712); assay: Inhibition of CYP2C9; format: ADME
Cytochrome P450 2D6 = Cytochrome P450 2D6 (Homo sapiens, UniProt P10635); assay: Inhibition of CYP2D6; format: ADME
hERG (KCNH2) = hERG (KCNH2) (Homo sapiens, UniProt Q12809); assay: Inhibition of human ERG assessed as channel current activity at 1 uM; parameters: scale not given: the % may be the effect or the level left; conditions: read-out: Activity
Cytochrome P450 2C19 = Cytochrome P450 2C19 (Homo sapiens, UniProt P33261); assay: Inhibition of CYP2C19; format: ADME
[3] = Clearance in rat; format: ADME, organism-based; conditions: in vivo
Rattus norvegicus [4] = assay: Ex vivo inhibition of DPP4 in rat plasma at 10 mg/kg, po after 24 hrs; format: functional; parameters: scale not given: the % may be the effect or the level left
[5] = Volume of distribution at steady state in rat; format: ADME, organism-based; conditions: in vivo, read-out: Vdss
[6] = Metabolic stability in human liver cytosol assessed as half life; format: ADME, tissue-based
[7] = Metabolic stability in human liver microsomes assessed as half life; format: ADME, Microsome
[8] = Oral bioavailability in rat; format: ADME, organism-based; conditions: in vivo
[9] = Mean residence time in rat; format: ADME, organism-based; conditions: in vivo
Cytochrome P450 3A4 = Cytochrome P450 3A4 (Homo sapiens, UniProt P08684); assay: Inhibition of CYP3A4; format: ADME
Sequence of Cytochrome P450 3A4 (P08684 whole entry): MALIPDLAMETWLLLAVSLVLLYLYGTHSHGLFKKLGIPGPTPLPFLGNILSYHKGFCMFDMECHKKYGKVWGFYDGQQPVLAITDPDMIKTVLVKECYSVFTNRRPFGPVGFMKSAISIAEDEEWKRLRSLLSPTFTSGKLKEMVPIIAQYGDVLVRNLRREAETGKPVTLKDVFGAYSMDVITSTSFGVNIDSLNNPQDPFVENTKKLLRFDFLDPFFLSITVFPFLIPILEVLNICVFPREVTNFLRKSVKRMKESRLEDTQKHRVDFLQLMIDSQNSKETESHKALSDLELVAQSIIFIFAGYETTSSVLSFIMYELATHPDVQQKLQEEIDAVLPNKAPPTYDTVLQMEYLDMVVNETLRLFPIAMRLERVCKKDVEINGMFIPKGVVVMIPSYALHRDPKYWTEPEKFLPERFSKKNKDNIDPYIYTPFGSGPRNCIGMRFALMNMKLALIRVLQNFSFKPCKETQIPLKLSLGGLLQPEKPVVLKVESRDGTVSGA

Sequence of hERG (KCNH2) (Q12809 whole entry): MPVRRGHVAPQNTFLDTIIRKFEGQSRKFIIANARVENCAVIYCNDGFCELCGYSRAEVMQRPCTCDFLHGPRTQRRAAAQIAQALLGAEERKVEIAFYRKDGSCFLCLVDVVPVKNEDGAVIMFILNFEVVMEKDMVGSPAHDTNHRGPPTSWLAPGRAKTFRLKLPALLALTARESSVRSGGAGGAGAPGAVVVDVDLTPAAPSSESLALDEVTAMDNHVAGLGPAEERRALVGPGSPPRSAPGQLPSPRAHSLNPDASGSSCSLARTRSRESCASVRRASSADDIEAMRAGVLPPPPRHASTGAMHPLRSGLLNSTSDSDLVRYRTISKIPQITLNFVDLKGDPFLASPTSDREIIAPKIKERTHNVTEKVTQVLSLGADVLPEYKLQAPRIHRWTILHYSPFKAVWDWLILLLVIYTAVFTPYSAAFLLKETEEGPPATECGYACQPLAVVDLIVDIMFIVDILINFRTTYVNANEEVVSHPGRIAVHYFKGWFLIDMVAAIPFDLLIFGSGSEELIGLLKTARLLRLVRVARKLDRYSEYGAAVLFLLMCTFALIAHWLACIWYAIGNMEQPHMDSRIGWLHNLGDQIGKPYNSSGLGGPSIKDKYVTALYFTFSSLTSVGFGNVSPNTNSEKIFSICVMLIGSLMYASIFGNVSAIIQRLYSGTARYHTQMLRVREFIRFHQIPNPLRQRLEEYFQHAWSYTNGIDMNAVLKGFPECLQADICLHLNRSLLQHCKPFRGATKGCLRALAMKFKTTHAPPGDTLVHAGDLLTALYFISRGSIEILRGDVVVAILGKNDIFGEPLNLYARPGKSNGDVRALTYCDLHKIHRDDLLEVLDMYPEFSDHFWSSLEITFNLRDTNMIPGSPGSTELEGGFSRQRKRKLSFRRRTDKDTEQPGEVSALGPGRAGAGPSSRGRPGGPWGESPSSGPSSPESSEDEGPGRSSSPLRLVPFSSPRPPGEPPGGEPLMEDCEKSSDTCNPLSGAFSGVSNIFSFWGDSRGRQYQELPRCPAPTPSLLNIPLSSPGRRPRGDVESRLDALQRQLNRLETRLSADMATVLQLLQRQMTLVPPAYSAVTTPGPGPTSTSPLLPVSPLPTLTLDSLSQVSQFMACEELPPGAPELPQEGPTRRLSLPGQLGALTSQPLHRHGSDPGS
Sequence of Cytochrome P450 2C9 (P11712 whole entry): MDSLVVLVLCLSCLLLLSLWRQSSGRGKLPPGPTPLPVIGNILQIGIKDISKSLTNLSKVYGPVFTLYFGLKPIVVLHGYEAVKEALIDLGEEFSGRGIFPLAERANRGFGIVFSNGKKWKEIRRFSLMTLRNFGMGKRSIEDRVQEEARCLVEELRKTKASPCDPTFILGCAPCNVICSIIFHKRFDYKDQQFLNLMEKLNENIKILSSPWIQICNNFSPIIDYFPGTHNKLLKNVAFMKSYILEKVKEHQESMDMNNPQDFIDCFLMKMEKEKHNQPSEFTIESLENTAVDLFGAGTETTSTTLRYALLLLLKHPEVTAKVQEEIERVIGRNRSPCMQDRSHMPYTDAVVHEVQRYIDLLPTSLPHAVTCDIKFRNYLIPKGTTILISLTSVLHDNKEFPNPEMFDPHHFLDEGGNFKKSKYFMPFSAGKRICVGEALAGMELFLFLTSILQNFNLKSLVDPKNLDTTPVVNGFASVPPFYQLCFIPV
Sequence of Cytochrome P450 2C19 (P33261 whole entry): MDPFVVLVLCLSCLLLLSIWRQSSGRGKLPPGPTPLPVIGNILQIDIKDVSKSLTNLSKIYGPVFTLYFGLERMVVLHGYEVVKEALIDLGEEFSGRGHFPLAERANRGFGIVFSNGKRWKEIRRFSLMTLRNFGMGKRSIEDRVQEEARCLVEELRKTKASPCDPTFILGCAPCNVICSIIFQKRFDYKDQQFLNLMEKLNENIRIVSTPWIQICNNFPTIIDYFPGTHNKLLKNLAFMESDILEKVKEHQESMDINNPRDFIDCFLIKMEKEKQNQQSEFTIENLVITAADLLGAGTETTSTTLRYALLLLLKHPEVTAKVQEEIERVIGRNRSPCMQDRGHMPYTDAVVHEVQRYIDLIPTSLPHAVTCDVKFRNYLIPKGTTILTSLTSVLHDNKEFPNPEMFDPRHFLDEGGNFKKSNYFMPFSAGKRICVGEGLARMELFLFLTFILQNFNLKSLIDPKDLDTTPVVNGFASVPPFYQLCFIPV
Sequence of Cytochrome P450 2D6 (P10635 whole entry): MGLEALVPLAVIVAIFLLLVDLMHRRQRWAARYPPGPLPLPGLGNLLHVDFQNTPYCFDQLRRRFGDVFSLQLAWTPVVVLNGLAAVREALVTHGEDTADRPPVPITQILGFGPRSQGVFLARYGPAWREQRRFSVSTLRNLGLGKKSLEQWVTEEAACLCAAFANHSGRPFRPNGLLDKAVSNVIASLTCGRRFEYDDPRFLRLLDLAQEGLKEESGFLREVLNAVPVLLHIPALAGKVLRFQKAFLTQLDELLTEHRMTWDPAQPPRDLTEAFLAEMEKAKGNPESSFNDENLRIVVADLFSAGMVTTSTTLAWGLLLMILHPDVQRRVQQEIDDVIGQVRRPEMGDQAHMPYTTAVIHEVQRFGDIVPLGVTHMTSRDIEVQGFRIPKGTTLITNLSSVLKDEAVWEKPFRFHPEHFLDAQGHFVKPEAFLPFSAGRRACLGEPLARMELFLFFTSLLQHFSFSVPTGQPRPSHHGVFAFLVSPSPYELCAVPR

Row | IC50 [1] [nM] | Compound | inhibition in vivo at 10 mg/kg (Rattus norvegicus [2]) [%] | other results
1 | 93 | CC#CCn1c(N2CCC[C@@H](N)C2)nc2c(C)nn(Cc3nc(C)c4ccccc4n3)c(=O)c21 | 76 | 
2 |  | CC#CCn1c(N2CCCC(N)C2)nc2cnn(CC(=O)c3ccccc3)c(=O)c21 (centres undefined) | 8 | 
3 | 1190 | CC#CCn1c(N2CCC[C@@H](N)C2)nc2cnn(Cc3nc(C)c4ccccc4n3)c(=O)c21 | 80 | Inhibition (Cytochrome P450 1A2): > 50 µM; Inhibition (Cytochrome P450 2C9): > 50 µM; Inhibition (Cytochrome P450 2D6): > 50 µM; activity at 1 µM (hERG (KCNH2)): 88%; Inhibition (Cytochrome P450 2C19): > 50 µM; clearance [3]: 56 mL/min/kg; Activity (Rattus norvegicus [4]): 71%; Vd [5]: 40 L/kg; half-life [6]: > 90 min; half-life [7]: > 90 min; bioavailability [8]: 15%; MRT [9]: 8.8 h; Inhibition (Cytochrome P450 3A4): > 50 µM
4 |  | CC#CCn1c(N2CCC[C@H](N)C2)nc2cnn(CC3=Nc4ccccc4Oc4ccccc43)c(=O)c21 | 9 | 
5 | 5610 | CC#CCn1c(N2CCCC(N)C2)nc2cnn(CC3=Nc4ccccc4Oc4ccccc43)c(=O)c21 (centres undefined) | 73 | 
6 | 2800 | CC#CCn1c(N2CCNCC2)nc2cnn(Cc3nc(C)c4ccccc4n3)c(=O)c21 | 45 | 
7 |  | CC#CCn1c(N2CCCC(N)C2)nc2cnn(Cc3nc4ccccc4o3)c(=O)c21 (centres undefined) | 64 | 
8 | 862 | CC#CCn1c(N2CCCC(N)C2)nc2cnn(Cc3ccc(C#N)c4ccccc34)c(=O)c21 (centres undefined) | 84 | 
9 | > 5000 | CC#CCn1c(N2CCC[C@@H](N)C2)nc2cnn(CC3=Nc4ccccc4Oc4ccccc43)c(=O)c21 | 63 | 
10 | 954 | CC#CCn1c(N2CCCNCC2)nc2cnn(Cc3nc(C)c4ccccc4n3)c(=O)c21 | 20 | 

Row | Compound | IC50 [1] [nM] | inhibition in vivo at 10 mg/kg (Rattus norvegicus [2]) [%] | other results
11 | CC#CCn1c(NCCN)nc2cnn(Cc3nc(C)c4ccccc4n3)c(=O)c21 | > 5000 | 29 | 
12 | CC#CCn1c(NC[C@H](C)N)nc2cnn(Cc3nc(C)c4ccccc4n3)c(=O)c21 | > 5000 | 50 | 

From ChEMBL document CHEMBL1145558, “3,5-Dihydro-imidazo[4,5-d]pyridazin-4-ones: a class of potent DPP-4 inhibitors” (Bioorg Med Chem Lett, 2008)
